# Test results taken from patent US7981861B2, “Method of performing angioplasty with a GLP-1 molecule” (Amylin Pharmaceuticals, Inc., priority 2000, dated 2011).
# “Also recorded” adds a separate entry of the source.
# Assays:
# [1] = system: dogs; assay: 10-minute left circumflex coronary (LCx) occlusion/reperfusion, myocardial stunning in dogs; format: in vivo, dog; settings: GLP-1 infusion for 24 hours beginning 1 minute prior to reperfusion
# Method: Two dogs were studied at baseline before, during, and for 6 hours after a 10-minute complete left circumflex coronary (LCx) occlusion. Each dog underwent occlusion/reperfusion in the presence and absence of GLP-1 infusion for 24 hours, beginning 1 minute prior to reperfusion. GLP-1 infusion enhanced the recovery of ventricular wall regional dysfunction following 10 minutes of coronary artery occlusion.
# [2] = system: Wistar rats; assay: LAD coronary artery occlusion (25 min) and 2-hour reperfusion, infarct size in anesthetized rats; format: in vivo, rat
# Method: Wistar rats were anesthetized with thiopentone sodium. The left anterior descending (LAD) coronary artery was occluded. After 25 minutes of occlusion, reperfusion was allowed for 2 hours. This animal model has been described previously. Zacharowski, et al., Br. J. Pharmacol. 128; 945-952 (1999).
# GLP-1 (1.5 μg/kg/min) was infused into anesthetized rats (n=10), commencing 10 minutes prior to reperfusion and continuing throughout the 2-hour reperfusion. Controls were sham operated with no occlusion (n=7), LAD occlusion+reperfusion+administration of saline (n=12), and LAD occlusion and reperfusion with a buffer of 10 mM sodium acetate, 5.05% D-mannitol, pH 4.5, (“vehicle”) at 1.5 mL/kg/hour (n=10).
# Following reperfusion, the coronary artery was reoccluded, and Evans Blue dye (4 ml, 2% w/v) was injected into the left ventricle of the heart via a right carotid artery cannula. Evans Blue stains perfused myocardium, while occluded vascular bed remains uncolored. Animals were then killed by anesthetic overdose and the hearts were removed for examination. Hearts were sectioned and the right ventricular wall was removed. The area at risk (pink) was separated from the non-ischemic tissue (blue). The area at risk (pink) was then cut into smaller pieces and stained with p-nitroblue tetrazolium (NBT; 0.5 mg/ml) for 20 min. at 37° C. In the presence of intact dehydrogenase enzyme systems (viable myocardium), NBT forms a dark blue compound. Areas of necrosis lack the enzyme and remain unstained. Tissue was separated according to staining and weighed to determine infarct size as a percentage of the area at risk.
substance,measurement,setting,value
GLP-1,stunning period during reperfusion after subcritical ischemia,[1]; dogs,significantly reduced; also recorded: reduced stunning
same,recovery of ventricular wall regional dysfunction following 10 minutes of coronary artery occlusion,[1]; two dogs,enhanced
same,infarct size as a percentage of the area at risk,"[2]; GLP-1 1.5 μg/kg/min infusion from 10 minutes prior to reperfusion and throughout 2-hour reperfusion, n=10, vehicle 46±4%, saline 50±3%",31±4%
same,reduction in infarct size compared with the vehicle group,"[2]; GLP-1 1.5 μg/kg/min infusion, statistically significant (p<0.05)",approximately 33%
same,reduction of infarct size (summary statement),"[2]; GLP-1 during last 10 min. of 25 min. ischemia and throughout 2-hour reperfusion, rats",30%
same,hemodynamics,"[2]; rats, GLP-1 during last 10 min. of ischemia and throughout 2-hour reperfusion",significantly improved
